After the bases stand the sugars from the 5' end (letter, count) and the backbone: PS all phosphorothioate, else s phosphorothioate and o phosphodiester by linkage. Methylation of C is not given here. e = 2'-O-(2-methoxyethyl) (MOE); k = constrained ethyl (cEt); d = 2'-deoxy (DNA); m = 2'-O-methyl
Target: HSD17B13
Conditions: ASO, HepaRG

Sequence	target mRNA inhibition (1 µM) [%]	also measured
GGTAGCTTTTGTCCAC (sugars k3 d10 k3, PS)	66	–
GGTCCACTTTTGGTGG (sugars k3 d10 k3, PS)	13	–
GGTGGTAACGGTGATC (sugars k3 d1 m1 d8 k3, PS)	35	–
GGTGGTAACGGTGATC (sugars k3 d9 k3 e1, PS)	47	–
GGTTGAGATAAAGCTG (sugars k3 d1 m1 d8 k3, PS)	57	–
GGTTGAGATAAAGCTG (sugars k3 d9 k3 e1, PS)	67	–
GGTTTTGATACCAGTT (sugars k3 d10 k3, PS)	58	–
GTAAACGACTCTGTAA (sugars k3 d10 k3, PS)	8	–
GTAAATTCTTGCTATC (sugars k3 d10 k3, PS)	40	–
GTAAATTGAATAGCCA (sugars k3 d10 k3, PS)	55	–
GTAACGGTGATCAAAT (sugars kkdddddddddkekek, PS)	34	–
GTAACTGTATTAAGAC (sugars k3 d10 k3, PS)	54	–
GTAAGCACAGAAGTTT (sugars k3 d10 k3, PS)	55	–
GTAAGGAGTAGTGGAG (sugars k3 d10 k3, PS)	37	–
GTAAGTATTCCATCTA (sugars k3 d10 k3, PS)	45	–
GTAATAGCCAGTACAG (sugars k3 d10 k3, PS)	77	target mRNA inhibition (0.02 µM): 0%; target mRNA inhibition (0.078 µM): 9%; target mRNA inhibition (0.313 µM): 45%; target mRNA inhibition (1.25 µM): 69%; target mRNA inhibition (5 µM): 84%
GTAATAGGCAGTAAAG (sugars k3 d10 k3, PS)	77	–
GTAATATTCATAGTTC (sugars k3 d10 k3, PS)	49	–

Sequence	target mRNA inhibition (1 µM) [%]	also measured
GTAATCACAAGTAAGG (sugars k3 d10 k3, PS)	70	target mRNA inhibition (0.02 µM): 0%; target mRNA inhibition (0.078 µM): 12%; target mRNA inhibition (0.313 µM): 32%; target mRNA inhibition (1.25 µM): 70%; target mRNA inhibition (5 µM): 93%
GTAATCAGTTTTCCTC (sugars k3 d10 k3, PS)	79	target mRNA inhibition (0.02 µM): 0%; target mRNA inhibition (0.078 µM): 0%; target mRNA inhibition (0.313 µM): 11%; target mRNA inhibition (1.25 µM): 36%; target mRNA inhibition (5 µM): 73%
GTAATCTTGAGGCAGG (sugars k3 d10 k3, PS)	51	–
GTACAGTAGGCAGTTT (sugars k3 d10 k3, PS)	50	–
GTACATGCCAAGCTTT (sugars k3 d10 k3, PS)	61	–
GTACTATAGTATTTAC (sugars k3 d10 k3, PS)	27	–
GTAGATGATGGTGATC (sugars k3 d10 k3, PS)	36	–
GTAGCTTTTGTCCACC (sugars k3 d1 m1 d8 k3, PS)	64	–
GTAGCTTTTGTCCACC (sugars k3 d10 k3, PS)	63	–
GTAGGAGTAGATGATG (sugars k3 d10 k3, PS)	7	–
GTAGTGGGAGTCGGAT (sugars k3 d10 k3, PS)	48	–
GTATAAATGGCAATTC (sugars k3 d10 k3, PS)	56	–
GTATAGTTATCTTCTC (sugars kkkdddddkdddkkke, PS)	68	–
GTATGGTAAGCCCCAT (sugars k3 d10 k3, PS)	36	–
GTATGTTTATGTAAGC (sugars k3 d1 m1 d8 k3, PS)	66	target mRNA inhibition (0.02 µM): 0%; target mRNA inhibition (0.078 µM): 0%; target mRNA inhibition (0.313 µM): 10%; target mRNA inhibition (1.25 µM): 72%; target mRNA inhibition (5 µM): 90%
GTATGTTTATGTAAGC (sugars kkdddddddddkekek, PS)	72	target mRNA inhibition (0.02 µM): 11%; target mRNA inhibition (0.078 µM): 27%; target mRNA inhibition (0.313 µM): 53%; target mRNA inhibition (1.25 µM): 63%; target mRNA inhibition (5 µM): 68%
GTATTAAGACAGTTGA (sugars k3 d10 k3, PS)	45	–
